Series [1] addresses urease (Canavalia ensiformis, UniProt P07374). Kind of series: biochemical. To be noted: indophenol method, urea substrate 100 mM, absorbance at 630 nm, triplicate.
Method: Compounds 5(a-n) were investigated to evaluate the inhibitory activity employing the slightly modified indophenol method [58, 59]. Assay mixture containing 1 unit of urease enzyme solution and 60 µl of buffer comprising urea substrate (100 mM) were pre-incubated with synthesized compounds (10 µl of 1 mM solution) at room temperature for 10 min in 96-well plates. Inhibitory activity of all test compounds was noted by measuring NH3 production using the above-mentioned protocol. Momentarily, phenolic reagent (50 µl) and alkali reagent (70 µl) were added in each well. After half an hour, absorbance at 630 nm was determined for all, using a Bio-Tek ELx 800, Instruments, Inc. USA Elisa-plate reader. Triplicate data for all the experiments was obtained and percentage inhibitory activities were calculated using the following formula: Inhibition percentage =100−( absorbance of experimental compound/absorbance of test control)×100.
Setting [2] is: urease inhibition IC50 ± s.e.m.
The mark [3] stands for this setting: read-out: urease inhibition IC50 ± s.e.m.

Values joined by “and” are separate entries in the source; they are usually repeats but may differ in a detail not shown here. Equal entries are not always repeated. Where two headings read alike, the source gives them in different places.

Chain of urease (P07374 whole entry, looked up): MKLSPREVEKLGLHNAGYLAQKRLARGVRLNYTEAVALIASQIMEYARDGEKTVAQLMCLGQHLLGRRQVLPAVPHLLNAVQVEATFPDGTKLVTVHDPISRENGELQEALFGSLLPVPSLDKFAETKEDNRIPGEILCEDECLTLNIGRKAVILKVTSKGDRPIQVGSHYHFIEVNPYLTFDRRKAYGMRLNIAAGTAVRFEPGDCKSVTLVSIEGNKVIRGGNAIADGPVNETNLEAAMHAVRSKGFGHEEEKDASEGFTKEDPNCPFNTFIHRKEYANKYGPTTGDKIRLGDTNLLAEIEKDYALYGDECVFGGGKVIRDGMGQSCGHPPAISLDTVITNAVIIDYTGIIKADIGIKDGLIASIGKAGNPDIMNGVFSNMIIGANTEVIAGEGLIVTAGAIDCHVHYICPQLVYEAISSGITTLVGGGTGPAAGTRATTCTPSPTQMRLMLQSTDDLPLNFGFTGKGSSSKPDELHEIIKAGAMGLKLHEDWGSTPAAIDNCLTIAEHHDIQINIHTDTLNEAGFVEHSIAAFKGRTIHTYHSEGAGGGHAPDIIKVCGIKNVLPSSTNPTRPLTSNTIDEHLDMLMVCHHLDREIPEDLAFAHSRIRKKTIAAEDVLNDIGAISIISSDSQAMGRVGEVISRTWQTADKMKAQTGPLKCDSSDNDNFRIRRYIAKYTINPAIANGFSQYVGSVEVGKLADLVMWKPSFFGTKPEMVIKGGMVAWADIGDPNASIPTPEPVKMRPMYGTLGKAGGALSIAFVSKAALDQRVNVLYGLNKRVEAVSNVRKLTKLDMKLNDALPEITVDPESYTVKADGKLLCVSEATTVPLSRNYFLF

`COC(=O)C1=C(O)c2ccccc2S(=O)(=O)N1CC(=O)Nc1ccc([N+](=O)[O-])cc1` [5j, Methyl 4-hydroxy-2-(2-((4-nitrophenyl)amino)-2-oxoethyl)-2H-benzo[e][1,2]thiazine-3-carboxylate 1,1-dioxide] gave a melting point of 192 to 194 °C. Besides, the IC50 in series [1] (setting [2]) amounted to 17.1 ± 1.45 µM.

On to `COC(=O)C1=C(O)c2ccccc2S(=O)(=O)N1CC(=O)Nc1cccc(OC)c1` [5e, Methyl 4-hydroxy-2-(2-((3-methoxyphenyl)amino)-2-oxoethyl)-2H-benzo[e][1, 2]thiazine-3-carboxylate 1,1-dioxide], for which the IC50 in series [1] (setting [3]) is 18.2 ± 1.69 µM. Consider `COC(=O)C1=C(O)c2ccccc2S(=O)(=O)N1CC(=O)Nc1ccccc1C` [5c, Methyl 4-hydroxy-2-(2-oxo-2-(o-tolylamino)ethyl)-2H-benzo[e][1,2]thiazine-3-carboxylate 1,1-dioxide], for which the melting point is 172 to 174 °C. Further, the midpoint of inhibition in series [1] (setting [2]), the IC50, lay at 17.2 ± 1.1 µM. In the case of `COC(=O)C1=C(O)c2ccccc2S(=O)(=O)N1CC(=O)Nc1ccccc1OC` [5b, Methyl 4-hydroxy-2-(2-((2-methoxyphenyl)amino)-2-oxoethyl)-2H-benzo[e][1,2]thiazine-3-carboxylate 1,1-dioxide], inhibition in series [1] (setting [2]) was half-maximal at 14.9 ± 1.5 µM (IC50). In the case of `COC(=O)C1=C(O)c2ccccc2S(=O)(=O)N1CC(=O)Nc1ccccc1C(=O)OC` [5d, Methyl 4-hydroxy-2-(2-((2-(methoxycarbonyl)phenyl)amino)-2-oxoethyl)-2H-benzo[e][1,2]thiazine-3-carboxylate 1,1-dioxide], the melting point lay in the range of 178 to 180 °C. This molecule also yielded an IC50 in series [1] (setting [2]) of 14.1 ± 0.12 µM. Regarding `CCOC(=O)c1ccc(NC(=O)CN2C(C(=O)OC)=C(O)c3ccccc3S2(=O)=O)cc1` [5k, Methyl 2-(2-((4-(ethoxycarbonyl)phenyl)amino)-2-oxoethyl)-4-hydroxy-2H-benzo[e][1,2]thiazine-3-carboxylate 1,1-dioxide], the IC50 in series [1] (setting [2]) came out at 9.8 ± 0.023 µM. Same read-out and setting: next, `COC(=O)C1=C(O)c2ccccc2S(=O)(=O)N1CC(=O)Nc1ccc(Cl)cc1` [5i, Methyl 2-(2-((4-chlorophenyl)amino)-2-oxoethyl)-4-hydroxy-2H-benzo[e][1,2]thiazine-3-carboxylate 1,1-dioxide]: 20.7 ± 0.25 µM. With `COC(=O)C1=C(O)c2ccccc2S(=O)(=O)N1CC(=O)Nc1ccccc1` [5a, Methyl 4-hydroxy-2-(2-oxo-2-(phenylamino)ethyl)-2H-benzo[e][1,2]thiazine-3-carboxylate 1,1-dioxide], the melting point is 188 to 190 °C. For the same molecule, the IC50 in series [1] (setting [2]) came out at 10.1 ± 0.9 µM. Consider `NC(N)=S` [thiourea, reference compound], for which the half-maximal inhibitory concentration (IC50) in series [1] (setting [3]) turned out to be 22.3 ± 0.031 µM.

With `COC(=O)C1=C(O)c2ccccc2S(=O)(=O)N1CC(=O)Nc1cccc(C)c1` [5f, Methyl 4-hydroxy-2-(2-oxo-2-(m-tolylamino)ethyl)-2H-benzo[e][1,2]thiazine-3-carboxylate 1,1-dioxide], the melting point was in the range of 192 to 194 °C. Further, half-maximal inhibition in series [1] (setting [2]) (IC50) was put at 15.5 ± 1.35 µM.

For `COC(=O)C1=C(O)c2ccccc2S(=O)(=O)N1CC(=O)Nc1ccc(Cl)cc1Cl` [5n, Methyl 2-(2-((2,4-dichlorophenyl)amino)-2-oxoethyl)-4-hydroxy-2H-benzo[e][1,2]thiazine-3-carboxylate 1,1-dioxide], the IC50 in series [1] (setting [2]) is 13 µM and 13.1 µM. Turning to `COC(=O)C1=C(O)c2ccccc2S(=O)(=O)N1CC(=O)Nc1ccc(NC(C)=O)cc1` [5l, Methyl 2-(2-((4-acetamidophenyl)amino)-2-oxoethyl)-4-hydroxy-2H-benzo[e][1,2]thiazine-3-carboxylate 1,1-dioxide], 12.6 ± 0.1 µM corresponded to half-maximal inhibition in series [1] (setting [2]) (IC50). In the case of `COC(=O)C1=C(O)c2ccccc2S(=O)(=O)N1CC(=O)Nc1ccc(OC)cc1` [5g, Methyl 4-hydroxy-2-(2-((4-methoxyphenyl)amino)-2-oxoethyl)-2H-benzo[e][1,2]thiazine-3-carboxylate 1,1-dioxide], the melting point was in the range of 176 to 178 °C. The same molecule returned an IC50 in series [1] (setting [2]) of 20.4 ± 1.81 µM. `COC(=O)C1=C(O)c2ccccc2S(=O)(=O)N1CC(=O)Nc1cccc(Cl)c1Cl` [5m, Methyl 2-(2-((2,3-dichlorophenyl)amino)-2-oxoethyl)-4-hydroxy-2H-benzo[e][1,2]thiazine-3-carboxylate 1,1-dioxide] displayed a melting point of 154 to 156 °C. In addition, the IC50 in series [1] (setting [2]) was 14 µM and 14.1 µM. Take `COC(=O)C1=C(O)c2ccccc2S(=O)(=O)N1CC(=O)Nc1ccc(C)cc1` [5h, Methyl 4-hydroxy-2-(2-oxo-2-(p-tolylamino)ethyl)-2H-benzo[e][1,2]thiazine-3-carboxylate 1,1-dioxide]: in series [1] (setting [2]), the IC50 was found to be 16.4 ± 1.4 µM.

(Values after article PMC10073911, “N-Arylacetamide derivatives of methyl 1,2-benzothiazine-3-carboxylate as potential drug candidates for urease inhibition” (Royal Society Open Science, 2023).)
